According to patent US9963462B2 (priority 2015, dated 2018):

Legend:
[1] = target: SNAP-hSPR (sepiapterin reductase, SPR) (Homo sapiens, UniProt P35270); assay: biochemical; assay type: binding; conditions: terbium labelled SNAP-hSPR / SSZ labelled SNAP-EGFP; read-out: hTR-FRET IC50
[2] = tested on: BH4 levels in SK-N-BE (2) cells; assay: SKN-N-BE (2) cellular assay, BH4 levels by LC-MS; assay type: cell-based; conditions: Homo sapiens, SKNBE2, read-out: SK-N-BE(2) IC50, SK-N-BE (2) cells, BH4 levels by LC-MS

Chain of SNAP-hSPR (sepiapterin reductase, SPR) (P35270 whole entry): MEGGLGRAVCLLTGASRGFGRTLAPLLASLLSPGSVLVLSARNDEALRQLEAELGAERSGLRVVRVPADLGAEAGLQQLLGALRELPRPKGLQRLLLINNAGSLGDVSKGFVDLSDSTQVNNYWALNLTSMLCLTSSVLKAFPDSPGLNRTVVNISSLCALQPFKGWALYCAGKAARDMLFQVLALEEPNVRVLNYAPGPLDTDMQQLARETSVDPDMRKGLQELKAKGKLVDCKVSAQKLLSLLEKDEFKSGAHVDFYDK

Compound	IC50 [1] [nM]	IC50 [2] [nM]
O=C(c1ccn(-c2nc3ccsc3c(=O)[nH]2)n1)N1CCC(C(F)(F)F)CC1 [Q-0390]	20	12000
Cc1c(C(=O)N2C[C@@H]3[C@H](C2)[C@@H]3C(N)=O)cnn1-c1nc2c(c(=O)[nH]1)CCC2 [Q-0610]	10	10000
Cc1nn(-c2nc3ccsc3c(=O)[nH]2)c(C)c1C(=O)N1CCC(C)(C)C1 [Q-0411]	9	2700
Cc1cc(=O)[nH]c(-n2ncc(C(=O)N3CCc4ccccc43)c2C)n1 [Q-0001]	20	2700
O=c1[nH]c(-c2ccc(Br)cn2)nc2c1CCC2 [Q-0465]	300	150000
Cc1c(C(=O)N2CCC(C(F)(F)F)CC2)cnn1-c1nc2c(c(=O)[nH]1)CCCC2 [Q-0425]	30	2100
Cc1c(C(=O)N2CCC3(CC2)COC3)cnn1-c1nn2cccc2c(=O)[nH]1 [Q-0793]	3	1000
Cc1cc(=O)[nH]c(-n2ccc(C(=O)N3c4ccccc4CC3C)n2)n1 (centres unmarked) [Q-0377]	40	6300
Cc1c(C(=O)N2CCC(N3CCC[C@@H]3C(F)(F)F)CC2)cnn1-c1nn2cccc2c(=O)[nH]1 [Q-1019]	–	400
Cc1c(C(=O)N2CCC(CC(F)(F)F)C2)cnn1-c1nn2cccc2c(=O)[nH]1 (centres unmarked) [Q-0966]	–	1300
Cc1c(C(=O)N2CC(Cc3ccc(C(F)(F)F)cc3)C2)cnn1-c1nn2cccc2c(=O)[nH]1 [Q-0940]	–	800
Cc1c(C(=O)N2Cc3cc(C(F)(F)F)cnc3C2)cnn1-c1nn2cccc2c(=O)[nH]1 [Q-1004]	–	3100
Cc1c(C(=O)N2CC3CC2C[C@@H]3C#N)cnn1-c1nn2cccc2c(=O)[nH]1 (some centres unmarked) [Q-1001]	–	1800
Cc1c(C(=O)N2CCC(N3CC[C@@H](F)C3)C2)cnn1-c1nn2cccc2c(=O)[nH]1 (some centres unmarked) [Q-1010]	–	4000
Cc1c(C(=O)N2C3CCC2CN(c2cccc(F)c2)C3)cnn1-c1nn2cccc2c(=O)[nH]1 [Q-0876]	–	88
Cc1c(C(=O)N2CC[C@H](C(F)(F)F)C[C@@H]2C)cnn1-c1nc2c(c(=O)[nH]1)CCC2 (single isomer, unassigned) [Q-0459]	–	59
Cc1c(C(=O)N2CCN(CCS(C)(=O)=O)CC2)cnn1-c1nn2cccc2c(=O)[nH]1 [Q-0901]	–	10000
Cc1c(C(=O)N2CCC(C(F)(F)F)CC2)cnn1-c1nc2ncsc2c(=O)[nH]1 [Q-0433]	–	58000
Cc1c(C(=O)N2CCC(O)(Cc3ccc(F)cc3)C2)cnn1-c1nn2cccc2c(=O)[nH]1 (centres unmarked) [Q-1028]	–	1100
Cc1c(C(=O)N2CCN(CC(F)(F)F)C(=O)C2)cnn1-c1nn2cccc2c(=O)[nH]1 [Q-0980]	–	1300
Cc1c(C(=O)N2CCCC(c3n[nH]c(C4CC4)n3)C2)cnn1-c1nn2cccc2c(=O)[nH]1 (centres unmarked) [Q-0955]	–	10000
Cc1c(C(=O)N2CCC3CCC(=O)N(C4CC4)C3C2)cnn1-c1nn2cccc2c(=O)[nH]1 (centres unmarked) [Q-0954]	–	9000
Cc1c(C(=O)N2CC3CCCC(C3)C2)cnn1-c1nn2cccc2c(=O)[nH]1 [Q-0934]	–	300
Cc1c(C(=O)N2CC(CC(F)(F)F)C2)cnn1-c1nn2cccc2c(=O)[nH]1 [Q-0947]	–	1000
Cc1c(C(=O)N2CC(N3CC(O)(C(F)(F)F)C3)C2)cnn1-c1nn2cccc2c(=O)[nH]1 [Q-1032]	–	10000
Cc1c(C(=O)N2CC(N3CC[C@@H](F)C3)C2)cnn1-c1nn2cccc2c(=O)[nH]1 [Q-1009]	–	2000

Compound	IC50 [1] [nM]	IC50 [2] [nM]
Cc1c(C(=O)N2CC(CN(C)C(=O)OC(C)(C)C)C2)cnn1-c1nn2cccc2c(=O)[nH]1 [Q-0861]	–	400
Cc1c(C(=O)N2CCN(c3nccs3)CC2)cnn1-c1nn2cccc2c(=O)[nH]1 [Q-0907]	–	400
Cc1c(C(=O)N2CCN(C3CC4CCC3C4)CC2)cnn1-c1nn2cccc2c(=O)[nH]1 (centres unmarked) [Q-0933]	–	200
Cc1c(C(=O)N2CC3CCCC(C2)N3C(=O)OC(C)(C)C)cnn1-c1nc2c(c(=O)[nH]1)CCC2 [Q-1045]	–	100
Cc1c(C(=O)N2CCN(CCC#N)CC2)cnn1-c1nn2cccc2c(=O)[nH]1 [Q-0895]	–	1400
Cc1c(C(=O)N2CCC(C)C(F)C2)cnn1-c1nn2cccc2c(=O)[nH]1 (centres unmarked) [Q-1039]	–	300
Cc1c(C(=O)N2CC(N3CCC[C@H](F)C3)C2)cnn1-c1nn2cccc2c(=O)[nH]1 [Q-1025]	–	1200
Cc1c(C(=O)N2CC3CCCC(C2)N3CCC(F)(F)F)cnn1-c1nn2cccc2c(=O)[nH]1 [Q-1036]	–	70
Cc1c(C(=O)N2CCN3CCC[C@@]3(C)C2)cnn1-c1nn2cccc2c(=O)[nH]1 [Q-0881]	–	2300
Cc1c(C(=O)N2C[C@H]3C[C@@H]2CN3C(=O)OC(C)(C)C)cnn1-c1nn2cccc2c(=O)[nH]1 [Q-0860]	–	1000
Cc1c(C(=O)N2CCC(C#N)CC2)cnn1-c1nn2cccc2c(=O)[nH]1 [Q-0883]	–	1300
Cc1c(C(=O)N2CC3CCCC(C2)N3CC(F)(F)F)cnn1-c1nn2cccc2c(=O)[nH]1 [Q-1035]	–	100
Cc1c(C(=O)N2C3CCC2CN(c2ccccn2)C3)cnn1-c1nn2cccc2c(=O)[nH]1 [Q-0882]	–	200
COC1CCN(C(=O)c2cnn(-c3nn4cccc4c(=O)[nH]3)c2C)CC1 [Q-0976]	–	1100
Cc1c(C(=O)N2CCC(C(F)(F)F)CC2)cnn1-c1nn2cccc2c(=O)[nH]1 [Q-0533]	–	69
Cc1c(C(=O)N2C[C@@H]3[C@@H](CF)[C@@H]3C2)cnn1-c1nn2cccc2c(=O)[nH]1 [Q-0961]	–	700
Cc1c(C(=O)N2C3CCC2CC(F)(c2ccc(Cl)cc2)C3)cnn1-c1nn2cccc2c(=O)[nH]1 (centres unmarked) [Q-1037]	–	71
Cc1ccc(OC2CC3CCC(C2)N3C(=O)c2cnn(-c3nn4cccc4c(=O)[nH]3)c2C)cc1 (centres unmarked) [Q-0974]	–	100
Cc1c(C(=O)N2CCC[C@H](OCC(F)(F)F)C2)cnn1-c1nn2cccc2c(=O)[nH]1 [Q-1044]	–	1000
Cc1c(C(=O)N2CCC(n3cncn3)CC2)cnn1-c1nn2cccc2c(=O)[nH]1 [Q-0919]	–	1700
Cc1c(C(=O)N2CCC3(CCN(CCC(F)(F)F)C3)CC2)cnn1-c1nn2cccc2c(=O)[nH]1 [Q-1018]	–	700
Cc1c(C(=O)N2CC3CC2C[C@H]3C#N)cnn1-c1nn2cccc2c(=O)[nH]1 (some centres unmarked) [Q-1002]	–	3400
Cc1c(C(=O)N2CC(N3CC[C@H](F)C3)C2)cnn1-c1nn2cccc2c(=O)[nH]1 [Q-1031]	–	2300
Cc1c(C(=O)N2CCC(c3nc(-c4ccccc4)cs3)CC2)cnn1-c1nn2cccc2c(=O)[nH]1 [Q-0939]	–	83
Cc1c(C(=O)N2CC(OCc3ccc(F)c(F)c3)C2)cnn1-c1nn2cccc2c(=O)[nH]1 [Q-1000]	–	900
Cc1c(C(=O)N2CCC(C3(C#N)CCC3)CC2)cnn1-c1nn2cccc2c(=O)[nH]1 [Q-0999]	–	200

Compound	IC50 [1] [nM]	IC50 [2] [nM]
Cc1c(C(=O)N2CCC(N3CCC[C@H](F)C3)C2)cnn1-c1nn2cccc2c(=O)[nH]1 (some centres unmarked) [Q-1026]	–	1700
Cc1c(C(=O)N2CC(N3CC(F)C3)C2)cnn1-c1nn2cccc2c(=O)[nH]1 [Q-0981]	–	1400
Cc1c(C(=O)N2CC3(C2)CC(F)(F)C3)cnn1-c1nc2c(c(=O)[nH]1)CCC2 [Q-1023]	–	700
Cc1c(C(=O)N2CCN(C(C#N)C(C)C)CC2)cnn1-c1nn2cccc2c(=O)[nH]1 (centres unmarked) [Q-0982]	–	10000
Cc1c(C(=O)N2CCn3cncc3C2)cnn1-c1nn2cccc2c(=O)[nH]1 [Q-0873]	–	10000
Cc1c(C(=O)N2CCC(N3CCC(F)(F)C3)C2)cnn1-c1nn2cccc2c(=O)[nH]1 (centres unmarked) [Q-0994]	–	3000
Cc1c(C(=O)N2CCC(N3CCCC(C(F)(F)F)C3)CC2)cnn1-c1nn2cccc2c(=O)[nH]1 (centres unmarked) [Q-1015]	–	400
Cc1c(C(=O)N2CCN3C(=O)CC[C@H]3C2)cnn1-c1nn2cccc2c(=O)[nH]1 [Q-0872]	–	10000
Cc1c(C(=O)N2CCC(N3CCOCC3)C2)cnn1-c1nn2cccc2c(=O)[nH]1 (centres unmarked) [Q-0950]	–	6200
Cc1c(C(=O)N2CC(N3CCC(F)CC3)C2)cnn1-c1nn2cccc2c(=O)[nH]1 [Q-1021]	–	1000
Cc1c(C(=O)N2CCn3cc(C(F)(F)F)nc3C2)cnn1-c1nn2cccc2c(=O)[nH]1 [Q-0871]	–	4000
Cc1c(C(=O)N2CCC(F)(c3ccc(Cl)cc3)CC2)cnn1-c1nn2cccc2c(=O)[nH]1 [Q-0990]	–	200
Cc1c(C(=O)N2C3CCC2CN(c2ccc(Cl)cc2)C3)cnn1-c1nn2cccc2c(=O)[nH]1 [Q-0894]	–	100
Cc1c(C(=O)N2CCC(c3nncn3C3CC3)CC2)cnn1-c1nn2cccc2c(=O)[nH]1 [Q-0958]	–	10000
Cc1c(C(=O)N2CCC[C@@H](OCC(F)(F)F)C2)cnn1-c1nn2cccc2c(=O)[nH]1 [Q-1014]	–	1400
Cc1c(C(=O)N2Cc3cc(Cl)cnc3C2)cnn1-c1nn2cccc2c(=O)[nH]1 [Q-1013]	–	1500
Cc1c(C(=O)N2CCC3(CC2)OCc2ccccc23)cnn1-c1nn2cccc2c(=O)[nH]1 [Q-0909]	–	100
Cc1c(C(=O)N2CCC3(CC2)CC3c2nnc(-c3cccc(F)c3)o2)cnn1-c1nn2cccc2c(=O)[nH]1 (centres unmarked) [Q-0905]	–	600
Cc1c(C(=O)N2CCN(C(C#N)c3ccc(F)cc3)CC2)cnn1-c1nn2cccc2c(=O)[nH]1 (centres unmarked) [Q-0963]	–	4000
Cc1c(C(=O)N2C3CCC2CC(N(C)C(=O)c2ccccc2)C3)cnn1-c1nn2cccc2c(=O)[nH]1 (centres unmarked) [Q-0970]	–	400
CCN(C)C1CCN(C(=O)c2cnn(-c3nn4cccc4c(=O)[nH]3)c2C)CC1 [Q-0925]	–	500
Cc1c(C(=O)Nc2ccc(F)cc2C(C)(C)O)cnn1-c1nn2cccc2c(=O)[nH]1 [Q-1008]	–	300
Cc1c(C(=O)N2CCC(c3nnc4n3CCC4)CC2)cnn1-c1nn2cccc2c(=O)[nH]1 [Q-0983]	–	10000
Cc1c(C(=O)N2CC3CC(C)N(C(=O)C(C)(C)C)C3C2)cnn1-c1nn2cccc2c(=O)[nH]1 (centres unmarked) [Q-0946]	–	1100
Cc1c(C(=O)N2CC[C@H](OCc3cnc(Cl)s3)C2)cnn1-c1nn2cccc2c(=O)[nH]1 [Q-0997]	–	1000
Cc1c(C(=O)N2C3CCC2CN(c2ccc(C#N)cn2)C3)cnn1-c1nn2cccc2c(=O)[nH]1 [Q-0877]	–	200
